From paper PMC11527646, “Pharmacological blockade of the mast cell MRGPRX2 receptor supports investigation of its relevance in skin disorders” (Frontiers in Immunology, 2024) come the findings set out here.

Structures are written as SMILES. Entries after “also recorded” stand apart in the source; their conditions may differ. Read-outs that look alike come from different tables or passages of the source. Bridge positions count the residues as written; N and C are the ends. Peptide text beside a SMILES is read from it.

The target in one assay is T1, MRGPRX2 (Homo sapiens, UniProt Q96LB1).
T1 sequence (Q96LB1 1-330): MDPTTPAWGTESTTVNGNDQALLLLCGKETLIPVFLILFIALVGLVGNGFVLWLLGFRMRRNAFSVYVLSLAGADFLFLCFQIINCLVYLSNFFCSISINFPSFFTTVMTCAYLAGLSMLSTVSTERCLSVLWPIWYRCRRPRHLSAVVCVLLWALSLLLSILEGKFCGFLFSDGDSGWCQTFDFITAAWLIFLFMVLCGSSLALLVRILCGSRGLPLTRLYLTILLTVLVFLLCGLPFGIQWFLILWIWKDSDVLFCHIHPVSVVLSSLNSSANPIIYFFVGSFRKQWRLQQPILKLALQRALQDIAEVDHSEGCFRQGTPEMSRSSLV
As to the kind of experiment: LAD2 mast cell degranulation (β-hexosaminidase release), MRGPRX2 ligand-mediated. It is filed as cell-based. The arrangement: human mast cells expressing endogenous MRGPRX2; endogenous in cells; […]. On the procedure:
Two different in vitro human mast cell systems were studied: (a) a human mast cell line, LAD2, established from a patient with mast cell sarcoma; and (b) mast cells freshly isolated from human skin. MRGPRX2 antagonist IC50 values were determined in the LAD2 mast cell degranulation assay using approximately EC80 concentrations for five different MRGPRX2 activating ligands (see Supplementary Figure 1 ).

The subject of another assay is human basophils. As to the kind of experiment: Histamine release from human blood basophils (buffy coats). It is filed as cell-based. The following applies: 0.2–25 μM; non-allergic or allergic donors, with or without anti-IgE pre-incubation. On the procedure:
Blood bank buffy coats were screened for reactions against 10 inhalant allergens (grass, birch, mugwort, cat, dog, horse, Dermatophagoides pteronyssinus, Dermatophagoides farinae, Cladosporium, and Alternaria) and 10 food allergens (milk, egg, wheat, peanut, hazelnut, kiwi, cod fish, shrimp, celeriac, and soy). Five buffy coats with histamine release > 30 ng/mL to any of the tested allergens and with a histamine release to blood with anti-IgE > 30 ng/mL were included as allergic donors. Further, five buffy coats with histamine release < 10 ng/mL to any of the above-mentioned allergens and with a histamine release to blood with anti-IgE > 25 ng/mL were included as non-allergic donors.
The buffy coats were pre-incubated for 30 min at 37°C with either buffer or anti-human IgE in concentrations ranging from 0.04 µg/mL to 5 µg/mL. […] Following pre-incubation with anti-IgE and incubation with SP, released histamine was quantified as previously described ([14]). Briefly, histamine was bound to a glass fiber matrix at the bottom of microtiter plates and after a series of wash steps coupled to ortho-phtaldialdehyde before being detected fluorometrically in the Histareader™ 501 (RefLab ApS, Copenhagen, Denmark). […]
Anti-IgE pre-stimulation. Histamine release measured in blood samples pre-incubated with various concentrations of anti-lgE for 30 mins, followed by 1 hour incubation with various […]

One may read the EC50 as the concentration at which the effect is half-maximal. `C[C@@H](O)[C@@H]1NC(=O)[C@H](CCCCN)NC(=O)[C@H](Cc2c[nH]c3ccccc23)NC(=O)[C@H](Cc2ccccc2)NC(=O)[C@H](Cc2ccccc2)NC(=O)[C@H](CC(N)=O)NC(=O)[C@H](CCCCN)NC(=O)[C@@H](NC(=O)[C@@H]2CCCN2)CSSC[C@@H](C(=O)N[C@@H](CCCCN)C(=O)O)NC(=O)[C@H](CO)NC(=O)[C@H](CO)NC(=O)[C@H](Cc2ccccc2)NC1=O` [Cortistatin 14, reference compound] (H-PCKNFFWKTFSSCK-OH; disulfide 2-13; N-terminus and C-terminus assumed): on MRGPRX2 (representative dose response curves, read-out: LAD2 mast cell degranulation agonist EC50), the EC50 is 67 nM.

Molecule `CC[C@H](C)[C@H](NC(=O)CNC(=O)[C@H](CC(=O)O)NC(=O)[C@H](CO)NC(=O)[C@@H](N)Cc1cnc[nH]1)C(=O)N[C@@H](Cc1ccccc1)C(=O)N[C@H](C(=O)N[C@@H](CC(=O)O)C(=O)N[C@@H](CO)C(=O)N[C@@H](Cc1ccc(O)cc1)C(=O)N[C@@H](CO)C(=O)N[C@@H](CCCNC(=N)N)C(=O)N[C@@H](Cc1ccc(O)cc1)C(=O)N[C@@H](CCCNC(=N)N)C(=O)N[C@@H](CCCCN)C(=O)N[C@@H](CCC(N)=O)C(=O)N[C@@H](CCSC)C(=O)N[C@@H](C)C(=O)N[C@H](C(=O)N[C@@H](CCCCN)C(=O)N[C@@H](CCCCN)C(=O)N[C@@H](Cc1ccc(O)cc1)C(=O)N[C@@H](CC(C)C)C(=O)N[C@@H](C)C(=O)N[C@@H](C)C(=O)N[C@H](C(=O)N[C@@H](CC(C)C)C(N)=O)C(C)C)C(C)C)[C@@H](C)O` [PACAP-27, reference compound] returned an EC50 on MRGPRX2 of 218 nM.

In the case of `CSCC[C@H](NC(=O)[C@H](CC(C)C)NC(=O)CNC(=O)[C@H](Cc1ccccc1)NC(=O)[C@H](Cc1ccccc1)NC(=O)[C@H](CCC(N)=O)NC(=O)[C@H](CCC(N)=O)NC(=O)[C@@H]1CCCN1C(=O)[C@H](CCCCN)NC(=O)[C@@H]1CCCN1C(=O)[C@@H](N)CCCN=C(N)N)C(N)=O` [Substance P], the “Histamine release response of basophils” value in the assay on human basophils is reported as “no SP response could be detected”.

Regarding `COc1ccc(-n2nnnc2C(F)(F)F)cc1CN[C@H]1CCCN[C@H]1c1ccccc1` [vofopitant, reference compound], the “Influence on Substance P-mediated mast cell degranulation” value at MRGPRX2 (Substance P 1 μM, β-hexosaminidase release, n = 8) is recorded as “has no influence; also recorded: unaltered”.
